molecular target: T1, Human 5-lipoxygenase (Homo sapiens, UniProt P09917); experiment: Activity of compounds against 5-LO enzyme (LTB4 measurement and/or fluorescence method); assay type: biochemical; details: 5-LO, single concentration of 10 uM in duplicate
T1 construct: purchased Cayman 60402; host or cells: insect cells
T1 sequence (P09917 1-674): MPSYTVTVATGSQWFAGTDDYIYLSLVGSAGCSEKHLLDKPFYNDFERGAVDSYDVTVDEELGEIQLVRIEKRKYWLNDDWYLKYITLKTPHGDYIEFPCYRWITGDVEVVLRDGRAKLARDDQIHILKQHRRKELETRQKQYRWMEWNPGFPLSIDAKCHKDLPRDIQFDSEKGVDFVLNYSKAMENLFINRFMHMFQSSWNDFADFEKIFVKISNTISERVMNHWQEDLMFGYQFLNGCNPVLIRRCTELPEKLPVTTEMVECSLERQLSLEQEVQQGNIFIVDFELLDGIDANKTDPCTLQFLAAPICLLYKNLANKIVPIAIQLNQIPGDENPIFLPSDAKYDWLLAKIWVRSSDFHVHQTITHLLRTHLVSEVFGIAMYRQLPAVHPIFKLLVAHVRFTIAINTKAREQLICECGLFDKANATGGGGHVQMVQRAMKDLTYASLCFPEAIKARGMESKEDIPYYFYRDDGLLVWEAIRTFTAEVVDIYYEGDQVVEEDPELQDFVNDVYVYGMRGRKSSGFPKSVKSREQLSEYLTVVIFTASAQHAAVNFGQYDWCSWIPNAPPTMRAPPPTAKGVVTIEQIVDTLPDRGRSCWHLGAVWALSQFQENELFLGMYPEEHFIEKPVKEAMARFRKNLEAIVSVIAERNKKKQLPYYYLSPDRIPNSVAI
Method in brief: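 Insect-cell human 5-LO preincubated 15 min at RT with compound (pH 7.4, 2 mM CaCl2, 0.1 mM ATP, 1% DMSO), then 3 uM arachidonic acid for 5 min at 37 °C; LTB4 quantified by EIA and/or LC/MS/MS. Alternatively, fluorescence of 5-HpETE via H2DCFDA, 100 uM ATP, 3 uM arachidonic acid, 5 min, RT; single 10 uM screen then 6- or 11-point IC50.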

Row | Compound | inhibition at 10 µM [%]
1 | CCc1nc2cc(Cl)ccn2c1C(=O)NCc1ccc(N2CCOCC2)c(Cl)c1 [compound 303, 7-Chloro-N-(3-chloro-4-morpholinobenzyl)-2-ethylimidazo[1,2-a]pyridine-3-carboxamide] | < 40
2 | CCc1nc2ccc(Cl)cn2c1C(=O)NCc1ccc(-c2ccccc2C)cc1 [compound 75, 6-Chloro-2-ethyl-N-((2′-methylbiphenyl-4-yl)methyl)imidazo[1,2-a]pyridine-3-carboxamide] | 40 to 69
3 | CCc1nc2ccc(Cl)cn2c1C(=O)NCc1ccc(-c2ccc(Cl)cc2)cc1 [compound 73, 6-Chloro-N-((4′-chlorobiphenyl-4-yl)methyl)-2-ethylimidazo[1,2-a]pyridine-3-carboxamide] | < 40
4 | COc1ccc(CCNC(=O)c2c(C)nc3ccccn23)cc1 [compound 8, N-(4-Methoxyphenethyl)-2-methylimidazo[1,2-a]pyridine-3-carboxamide] | < 40
5 | CCc1nc2ccc(Cl)cn2c1C(=O)NCc1ccn(-c2ccc(F)cc2)n1 [compound 153, 6-Chloro-2-ethyl-N-((1-(4-fluorophenyl)-1H-pyrazol-3-yl)methyl)imidazo[1,2-a]pyridine-3-carboxamide] | < 40
6 | CCc1nc2ccc(Cl)cn2c1CNCCc1cccnc1 [compound 343, N-((6-chloro-2-ethylimidazo[1,2-a]pyridin-3-yl)methyl)-2-(pyridin-3-yl)ethanamine] | < 40
7 | CCc1nc2ccc(Cl)cn2c1C(=O)NCc1ccc2ccn(C)c2c1 [compound 68] | < 40
8 | CCc1nc2cc(Cl)ccn2c1C(=O)NCc1ccc(N2CCC(OCc3ccc(F)cc3)CC2)cc1 [compound 301, 7-Chloro-2-ethyl-N-(4-(4-(4-fluorobenzyloxy)piperidin-1-yl)benzyl)imidazo[1,2-a]pyridine-3-carboxamide] | 40 to 69
9 | CCc1nc2ccc(Cl)cn2c1C(=O)NCc1ccc(Cl)cc1 [compound 78, 6-Chloro-N-(4-chlorobenzyl)-2-ethylimidazo[1,2-a]pyridine-3-carboxamide] | < 40
10 | CCOC(=O)c1c(C)nc2ccc(-c3ccccc3)cn12 [compound 27, Ethyl 2-methyl-6-phenylimidazo[1,2-a]pyridine-3-carboxylate] | 40 to 69
11 | CCc1nc2cc(Cl)ccn2c1C(=O)NCc1ccc(-c2ccccc2)cc1 [compound 91, N-(Biphenyl-4-ylmethyl)-7-chloro-2-ethylimidazo[1,2-a]pyridine-3-carboxamide] | 40 to 69
12 | CCc1nc2ccc(Cl)cn2c1CNCc1ccc(N2CCC(OCc3ccccc3)CC2)cc1 [compound 341, N-(4-(4-(benzyloxy)piperidin-1-yl)benzyl)-1-(6-chloro-2-ethylimidazo[1,2-a]pyridin-3-yl)methanamine] | 40 to 69
13 | CCc1nc2cc(Cl)ccn2c1C(=O)NCc1ccc(N2CC=CCC2)cc1 [compound 194, 7-Chloro-N-(4-(5,6-dihydropyridin-1(2H)-yl)benzyl)-2-ethylimidazo[1,2-a]pyridine-3-carboxamide] | > 69
14 | CCc1nc2cc(Cl)ccn2c1CNc1ccc(NC2CCN(c3ccc(F)cc3)CC2)cc1 [compound 375, N1-((7-chloro-2-ethylimidazo[1,2-a]pyridin-3-yl)methyl)-N4-(1-(4-fluorophenyl)piperidin-4-yl)benzene-1,4-diamine] | > 69
15 | CCc1nc2ccccn2c1C(=O)NCc1ccc(Oc2ccccc2)cc1 [compound 45, 2-Ethyl-N-(4-phenoxybenzyl)imidazo[1,2-a]pyridine-3-carboxamide] | < 40

same assay, conditions: 6 or 11 point dose response in duplicate

Row | Compound | IC50 [µM]
16 | CCc1nc2ccc(Cl)cn2c1C(=O)NCc1ccc(-c2ccccc2C)cc1 [compound 75, 6-Chloro-2-ethyl-N-((2′-methylbiphenyl-4-yl)methyl)imidazo[1,2-a]pyridine-3-carboxamide] | 1 to 20
17 | CCc1nc2ccc(Cl)cn2c1C(=O)N1CC[C@H](OCc2ccc(OC(F)(F)F)cc2)C1 [compound 390, (S)-(6-chloro-2-ethylimidazo[1,2-a]pyridin-3-yl)(3-(4-(trifluoromethoxy)benzyloxy)-pyrrolidin-1-yl)methanone] | 1 to 20
18 | CCc1nc2cc(Cl)ccn2c1C(=O)NCc1ccc(N2CC=CCC2)cc1 [compound 194, 7-Chloro-N-(4-(5,6-dihydropyridin-1(2H)-yl)benzyl)-2-ethylimidazo[1,2-a]pyridine-3-carboxamide] | > 20
